According to patent publication US8163778B2 (Hoffmann-LA Roche Inc., priority 2007, dated 2012):

Molecular target: T1, human liver FBPase (Homo sapiens, UniProt P09467)
T1 construct: made in house; host or cells: E. coli
T1 sequence (P09467 2-338 limits assumed): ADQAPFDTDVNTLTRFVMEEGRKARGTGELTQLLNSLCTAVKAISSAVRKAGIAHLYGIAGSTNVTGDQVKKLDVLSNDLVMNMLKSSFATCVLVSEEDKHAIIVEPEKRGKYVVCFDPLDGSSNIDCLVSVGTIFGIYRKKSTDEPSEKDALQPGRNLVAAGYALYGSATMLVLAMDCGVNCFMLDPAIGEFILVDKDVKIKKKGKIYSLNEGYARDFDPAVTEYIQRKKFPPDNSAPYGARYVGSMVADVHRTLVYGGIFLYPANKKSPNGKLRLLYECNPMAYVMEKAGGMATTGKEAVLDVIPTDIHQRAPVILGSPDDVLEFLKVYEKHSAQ
Test: FBPase assay (malachite green phosphate release)
Assay type: biochemical
Settings: recombinant human liver FBPase, 50 μM fructose-1,6-bisphosphate
Experimental: The following tests were carried out for evaluating the inhibitory activity of the compounds of the present invention against human liver FBPase (Swissprot Data base reference PO9467, entry F16P_HUMAN).
Human liver FBPase cDNA (NM_000507) was purchased from Origene Technologies, Inc, subcloned in a vector for expression in E. Coli., and sequenced. Recombinant human liver FBPase (hlFBPase) was purified according to the following protocol that uses heat denaturation similarly to that described by El-Maghrabi et al. [El-Maghrabi, M. R. et al. “Isolation of a human liver fructose-1,6-bisphosphatase cDNA and expression of the protein in Escherichia coli.” J Biol Chem 268:9466-9472, 1993.]. Briefly, E. coli cells, transiently expressing very high levels of soluble and active human liver FBPase, were suspended in 20 mM Tris-HCl pH 7.5, 1 mM EDTA, 1 mM DTT and were lysed by French press. The soluble extract was heat denatured at 65° C. for 5 min, and insoluble, denatured proteins were removed by centrifugation. The extract was then applied to a BioRad Macro-Prep High Q column equilibrated with 20 mM Tris-HCl pH 7.5, 1 mM EDTA, 1 mM DTT and the flow-through (containing FBPase activity) was collected and applied to a BioRad Macro-Prep HS column equilibrated with 20 mM HEPES pH 7.2, 1 mM DTT. A gradient of increasing NaCl concentration was then applied to the HS column and fractions were collected. Fractions containing active FBPase were pooled and further purified by size exclusion chromatography on a Sephacryl S200 column equilibrated in 20 mM Tris-HCl pH 7.5, 150 mM NaCl, 1 mM EDTA, 1 mM DTT. Purity of the enzyme preparation was >90% as assessed by Mass spectrometry.
Recombinant human liver FBPase (hlFBPase) activity was assayed through measuring the inorganic phosphate release that results from the hydrolysis of Fructose-1,6-bisphosphate by the enzyme. As described by Baykov A. A. et al. in [Baykov A. A et al., “Malachite Green procedure for orthophosphate determination and its use in alkaline phosphatase-based enzyme immunoassays”. Anal. Biochem., 171:266-270, 1988], inorganic phosphate can be readily quantified by spectrophotometry at 620 nm after complexation with ammonium molybdate/malachite green reagent. Enzymatic reaction was carried out with modifications of the procedure described by Wright S. W. et al. [Wright S. W. et al., “Anilinoquinazoline inhibitors of Fructose-1,6-bisphosphatase bind to a novel allosteric site: synthesis, in vitro characterization, and X-ray crystallography”. J. Med. Chem. 45:3865-3877, 2002]. Specifically, the reaction was carried out in 96 well plates in a final volume of 100 μl in the presence or in the absence of allosteric inhibitors. Reaction was started adding 25 ng of hlFBPase to the reaction mixture containing 50 mM HEPES-KOH buffer pH 7.2, 2 mM MgCl2, 2 mM EDTA, 1 mM DTT, 50 μM fructose-1,6-bisphosphate and 1% DMSO. After 50 minutes incubation at room temperature, the phosphate released was allowed to form a colored complex for 10 min by adding 150 μl of ammonium molybdate/malachite green reagent containing 0.03% malachite green, 0.2% ammonium molybdate, 0.05% Triton X-100 and 0.7 M H2SO4 in water that was stirred for 30 min at room temperature and filtered through 0.2 μm filter. Under these conditions, the assay was linear with time and able to detect FBPase inhibition after spectrophotometric read-out at 620 nm.

Row | IC50 [nM] | Structure (SMILES)
1 | 1780 | COCCc1sc(S(=O)(=O)NC(=O)Nc2cc(SC)cc(C)n2)cc1C [Compound 86, 5-(2-Methoxyethyl)-4-methyl-N-{[6-methyl-4-(methylthio)pyridin-2-yl]carbamoyl}thiophene-2-sulfonamide]
2 | 844 | CC(=O)OCCc1sc(S(=O)(=O)NC(=O)Nc2cc(C(F)(F)F)cc(Cl)n2)cc1C [Compound 93, 2-{5-[({[6-chloro-4-(trifluoromethyl)pyridin-2-yl]carbamoyl}amino)sulfonyl]-3-methyl-2-thienyl}ethyl acetate]
3 | 2260 | COCCc1sc(S(=O)(=O)NC(=O)Nc2cc(SC)cc(NCCCO)n2)cc1C [Compound 74, N-({6-[(3-Hydroxypropyl)amino]-4-(methylthio)pyridin-2-yl}carbamoyl)-5-(2-methoxyethyl)-4-methylthiophene-2-sulfonamide]
4 | 937 | COCCc1sc(S(=O)(=O)NC(=O)Nc2cc(C)cc(C3CCc4ccccc4C3)n2)cc1C (centres unmarked) [Compound 46, 5-(2-Methoxyethyl)-4-methyl-N-{[4-methyl-6-(1,2,3,4-tetrahydronaphthalen-2-yl)pyridin-2-yl]carbamoyl}thiophene-2-sulfonamide]
5 | 834 | CSc1cc(N)nc(NC(=O)NS(=O)(=O)c2csc(C)c2)c1 [Compound 43, N-{[6-Amino-4-(methylthio)pyridin-2-yl]carbamoyl}-5-methylthiophene-3-sulfonamide]
6 | 1690 | COCCc1sc(S(=O)(=O)NC(=O)Nc2cc(SC)cc(NCCC(F)(F)F)n2)cc1C [Compound 75, 5-(2-Methoxyethyl)-4-methyl-N-({4-(methylthio)-6-[(3,3,3-trifluoropropyl)amino]pyridin-2-yl}carbamoyl)thiophene-2-sulfonamide]
7 | 72 | Cc1cc(S(=O)(=O)NC(=O)Nc2cc(Br)cc(NC(N)=O)n2)cs1 [Compound 2, N-{[4-Bromo-6-(carbamoylamino)pyridin-2-yl]carbamoyl}-5-methylthiophene-3-sulfonamide]
8 | 225 | COCc1sc(S(=O)(=O)NC(=O)Nc2cc(Br)cc(N)n2)cc1C [Compound 21, N-[(6-Amino-4-bromopyridin-2-yl)carbamoyl]-5-(methoxymethyl)-4-methylthiophene-2-sulfonamide]
9 | 345 | CC(=O)OCCc1sc(S(=O)(=O)NC(=O)Nc2cc(C(F)(F)F)cc(C)n2)cc1C [Compound 111, 2-{3-methyl-5-[({[6-methyl-4-(trifluoromethyl)pyridin-2-yl]carbamoyl}amino)sulfonyl]-2-thienyl}ethyl acetate]
10 | 3430 | CNC(=O)Nc1cc(OC)cc(NC(=O)NS(=O)(=O)c2cn(C)c3c(OCC(=O)N(C)C)cccc23)n1 [Compound 70, 2-[(3-{[({4-Methoxy-6-[(methylcarbamoyl)amino]pyridin-2-yl}carbamoyl)amino]sulfonyl}-1-methyl-1H-indol-7-yl)oxy]-N,N-dimethylacetamide]
11 | 1960 | COCCc1sc(S(=O)(=O)NC(=O)Nc2cc(OC)cc(C#N)n2)cc1C [Compound 58, N-[(6-Cyano-4-methoxypyridin-2-yl)carbamoyl]-5-(2-methoxyethyl)-4-methylthiophene-2-sulfonamide]
12 | 1630 | COCCc1sc(S(=O)(=O)NC(=O)Nc2cc(SC)cc(-c3noc(C)n3)n2)cc1C [Compound 117, 5-(2-methoxyethyl)-4-methyl-N-{[6-(5-methyl-1,2,4-oxadiazol-3-yl)-4-(methylthio)pyridin-2-yl]carbamoyl}thiophene-2-sulfonamide]
13 | 312 | CNC(=O)Nc1cc(OC)cc(NC(=O)NS(=O)(=O)c2cn(C)c3c(OC)cccc23)n1 [Compound 26, 7-Methoxy-N-({4-methoxy-6-[(methylcarbamoyl)amino]pyridin-2-yl}carbamoyl)-1-methyl-1H-indole-3-sulfonamide]
14 | 500 | CNC(=O)Nc1cc(SC)cc(NC(=O)NS(=O)(=O)c2coc3ccccc23)n1 [Compound 89, N-({6-[(Methylcarbamoyl)amino]-4-(methylthio)pyridin-2-yl}carbamoyl)-1-benzofuran-3-sulfonamide]
15 | 1520 | COCCc1sc(S(=O)(=O)NC(=O)Nc2cc(Br)cc(NC(=O)N(C)C)n2)cc1C [Compound 54, N-({4-Bromo-6-[(dimethylcarbamoyl)amino]pyridin-2-yl}carbamoyl)-5-(2-methoxyethyl)-4-methylthiophene-2-sulfonamide]
16 | > 100000 | CNC(=O)Nc1cc(C(N)=O)cc(NC(=O)NS(=O)(=O)c2cc(C)c(CCOC)s2)n1 [Compound 101, 2-[({[5-(2-Methoxyethyl)-4-methyl-2-thienyl]sulfonyl}carbamoyl)amino]-6-[(methylcarbamoyl)amino]isonicotinamide]
17 | 4800 | COCCc1sc(S(=O)(=O)NC(=O)Nc2cc(OC)cc(C(N)=O)n2)cc1C [Compound 119, 6-[({[5-(2-Methoxyethyl)-4-methyl-2-thienyl]sulfonyl}carbamoyl)amino]-4-(methoxy)pyridine-2-carboxamide]
18 | 515 | Cc1cc(C(F)(F)F)cc(NC(=O)NS(=O)(=O)c2cc(C)c(CCO)s2)n1 [Compound 114, 5-(2-Hydroxyethyl)-4-methyl-N-{[6-methyl-4-(trifluoromethyl)pyridin-2-yl]carbamoyl}thiophene-2-sulfonamide]
19 | 481 | Nc1cc(Br)cc(NC(=O)NS(=O)(=O)c2ccc3c(c2)CCO3)n1 [Compound 34, N-[(6-Amino-4-bromopyridin-2-yl)carbamoyl]-2,3-dihydro-1-benzofuran-5-sulfonamide]
20 | 259 | COCCc1sc(S(=O)(=O)NC(=O)Nc2cc(OC)cc(NC(N)=O)n2)cc1C [Compound 24, N-{[6-(Carbamoylamino)-4-methoxypyridin-2-yl]carbamoyl}-5-(2-methoxyethyl)-4-methylthiophene-2-sulfonamide]
21 | 1740 | COCCc1sc(S(=O)(=O)NC(=O)Nc2cc(SC)cc(NCCCC(=O)OC)n2)cc1C [Compound 73, Methyl-4-({6-[({[5-(2-methoxyethyl)-4-methyl-2-thienyl]sulfonyl}carbamoyl)amino]-4-(methylthio)pyridin-2-yl}amino)butanoate]
22 | 115 | CNC(=O)Nc1cc(OC)cc(NC(=O)NS(=O)(=O)c2csc(C)c2)n1 [Compound 9, N-[[[4-methoxy-6-[[(methylamino)carbonyl]amino]-2-pyridinyl]amino]carbonyl]-5-methyl-3-thiophenesulfonamide]
23 | 2180 | CCOc1cc(N)nc(NC(=O)NS(=O)(=O)c2cc(C)c(CCOC)s2)c1 [Compound 64, N-[(6-Amino-4-ethoxypyridin-2-yl)carbamoyl]-5-(2-methoxyethyl)-4-methylthiophene-2-sulfonamide]
24 | 1870 | Nc1cc(Br)cc(NC(=O)NS(=O)(=O)c2coc3ccccc23)n1 [Compound 82, N-[(6-Amino-4-bromopyridin-2-yl)carbamoyl]-1-benzofuran-3-sulfonamide]
25 | 1170 | Cc1cc(C(F)(F)F)cc(NC(=O)NS(=O)(=O)c2ccc(C)s2)n1 [Compound 121, 5-Methyl-N-{[6-methyl-4-(trifluoromethyl)pyridin-2-yl]carbamoyl}thiophene-2-sulfonamide]
26 | 582 | CNC(=O)Nc1cc(OC)cc(NC(=O)NS(=O)(=O)c2cc(C)c(OCCOC)s2)n1 [Compound 38, 5-(2-Methoxyethoxy)-N-({4-methoxy-6-[(methylcarbamoyl)amino]pyridin-2-yl}carbamoyl)-4-methylthiophene-2-sulfonamide]
